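Step 1: Grow cells in 96-well plates. Step 2: Expose to compound for 48 hours at 5 concentrations. Step 3: Interpolate endpoints linearly; if unreached, use highest concentration. Here, GI50 denotes the concentration required for 50% inhibition of growth. TGI: total growth inhibition.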
Key:
Experiment in all cases: NCI tumour cell line growth inhibition, 48 h
NCI-H23 lung = system: NCI-H23 lung
NCI-H226 lung = system: NCI-H226 lung
BT-549 breast = system: BT-549 breast
IGROV1 ovarian = system: IGROV1 ovarian
SK-MEL-5 melanoma = system: SK-MEL-5 melanoma
HOP-62 NSCLC = system: HOP-62 NSCLC
OVCAR-4 ovarian = system: OVCAR-4 ovarian
U251 CNS = system: U251 CNS
SK-MEL-28 melanoma = system: SK-MEL-28 melanoma
OVCAR-8 ovarian = system: OVCAR-8 ovarian
NCI/ADR-RES ovarian = system: NCI/ADR-RES ovarian
HL-60(TB) leukemia = system: HL-60(TB) leukemia
HOP-92 NSCLC = system: HOP-92 NSCLC
M14 melanoma = system: M14 melanoma
T-47D breast = system: T-47D breast
A549 NSCLC = system: A549 NSCLC
SF-268 CNS = system: SF-268 CNS
LOX IMVI melanoma = system: LOX IMVI melanoma
HT29 colon = system: HT29 colon
SK-MEL-2 melanoma = system: SK-MEL-2 melanoma
K-562 leukemia = system: K-562 leukemia
MCF7 breast = system: MCF7 breast
CCRF-CEM leukemia = system: CCRF-CEM leukemia
HCT-15 colon = system: HCT-15 colon
HCT-116 colon = system: HCT-116 colon
NCI-H460 lung = system: NCI-H460 lung
UO-31 renal = system: UO-31 renal
SW-620 colon = system: SW-620 colon
SNB-19 CNS = system: SNB-19 CNS
RPMI-8226 leukemia = system: RPMI-8226 leukemia
NCI-H522 lung = system: NCI-H522 lung
HS 578T breast = system: HS 578T breast
SNB-75 CNS = system: SNB-75 CNS
SR leukemia = system: SR leukemia
PC-3 prostate = system: PC-3 prostate
SF-295 CNS = system: SF-295 CNS
DU-145 prostate = system: DU-145 prostate
OVCAR-3 ovarian = system: OVCAR-3 ovarian
TK-10 renal = system: TK-10 renal
SK-OV-3 ovarian = system: SK-OV-3 ovarian
EKVX NSCLC = system: EKVX NSCLC
UACC-62 melanoma = system: UACC-62 melanoma
MOLT-4 leukemia = system: MOLT-4 leukemia
COLO 205 colon = system: COLO 205 colon
SN12C renal = system: SN12C renal
OVCAR-5 ovarian = system: OVCAR-5 ovarian
HCC-2998 colon = system: HCC-2998 colon
UACC-257 melanoma = system: UACC-257 melanoma
KM12 colon = system: KM12 colon
SF-539 CNS = system: SF-539 CNS
ACHN renal = system: ACHN renal
MALME-3M melanoma = system: MALME-3M melanoma
CAKI-1 renal = system: CAKI-1 renal
MDA-MB-231 breast = system: MDA-MB-231 breast
A498 renal = system: A498 renal
786-0 renal = system: 786-0 renal

CCc1cccc2c3c(sc12)C(c1ccc(F)cc1)C(C#N)=C(/N=C/c1ccc(Cl)cc1)O3 (configuration not stated)
GI50 (NCI-H23 lung): 578 nM
TGI (NCI-H23 lung): > 100000 nM
GI50 (NCI-H226 lung): 379 nM
TGI (NCI-H226 lung): 45900 nM
GI50 (BT-549 breast): 2050 nM
TGI (BT-549 breast): 7840 nM
GI50 (IGROV1 ovarian): 498 nM
TGI (IGROV1 ovarian): > 100000 nM
GI50 (SK-MEL-5 melanoma): 319 nM
TGI (SK-MEL-5 melanoma): 18000 nM
GI50 (HOP-62 NSCLC): 312 nM
TGI (HOP-62 NSCLC): > 100000 nM
GI50 (OVCAR-4 ovarian): 97600 nM
TGI (OVCAR-4 ovarian): > 100000 nM
GI50 (U251 CNS): 369 nM
TGI (U251 CNS): 34200 nM
GI50 (SK-MEL-28 melanoma): 492 nM
TGI (SK-MEL-28 melanoma): > 100000 nM
GI50 (OVCAR-8 ovarian): 500 nM
TGI (OVCAR-8 ovarian): > 100000 nM
GI50 (NCI/ADR-RES ovarian): 192 nM
TGI (NCI/ADR-RES ovarian): 683 nM
GI50 (HL-60(TB) leukemia): 222 nM
TGI (HL-60(TB) leukemia): 649 nM
GI50 (HOP-92 NSCLC): 22400 nM
TGI (HOP-92 NSCLC): > 100000 nM
GI50 (M14 melanoma): 335 nM
TGI (M14 melanoma): > 100000 nM
GI50 (T-47D breast): 450 nM
TGI (T-47D breast): > 100000 nM
GI50 (A549 NSCLC): 506 nM
TGI (A549 NSCLC): > 100000 nM
GI50 (SF-268 CNS): 6260 nM
TGI (SF-268 CNS): > 100000 nM
GI50 (LOX IMVI melanoma): 576 nM
TGI (LOX IMVI melanoma): > 100000 nM
GI50 (HT29 colon): 323 nM
TGI (HT29 colon): 36500 nM
GI50 (SK-MEL-2 melanoma): 325 nM
TGI (SK-MEL-2 melanoma): 78000 nM
GI50 (K-562 leukemia): 128 nM
TGI (K-562 leukemia): > 100000 nM
GI50 (MCF7 breast): 392 nM
TGI (MCF7 breast): > 100000 nM
GI50 (CCRF-CEM leukemia): 324 nM
TGI (CCRF-CEM leukemia): 44200 nM
GI50 (HCT-15 colon): 355 nM
TGI (HCT-15 colon): > 100000 nM
GI50 (HCT-116 colon): 383 nM
TGI (HCT-116 colon): > 100000 nM
GI50 (NCI-H460 lung): 427 nM
TGI (NCI-H460 lung): > 100000 nM
GI50 (UO-31 renal): 553 nM
TGI (UO-31 renal): > 100000 nM
GI50 (SW-620 colon): 471 nM
TGI (SW-620 colon): > 100000 nM
GI50 (SNB-19 CNS): 988 nM
TGI (SNB-19 CNS): > 100000 nM
GI50 (RPMI-8226 leukemia): 387 nM
TGI (RPMI-8226 leukemia): > 100000 nM
GI50 (NCI-H522 lung): 66 nM
TGI (NCI-H522 lung): 381 nM
GI50 (HS 578T breast): 255 nM
TGI (HS 578T breast): 80200 nM
GI50 (SNB-75 CNS): 376 nM
TGI (SNB-75 CNS): 79800 nM
GI50 (SR leukemia): 402 nM
TGI (SR leukemia): 19800 nM
GI50 (PC-3 prostate): 501 nM
TGI (PC-3 prostate): > 100000 nM
GI50 (SF-295 CNS): 278 nM
TGI (SF-295 CNS): > 100000 nM
GI50 (DU-145 prostate): 579 nM
TGI (DU-145 prostate): > 100000 nM
GI50 (OVCAR-3 ovarian): 709 nM
TGI (OVCAR-3 ovarian): > 100000 nM
GI50 (TK-10 renal): 6800 nM
TGI (TK-10 renal): > 100000 nM
GI50 (SK-OV-3 ovarian): 412 nM
TGI (SK-OV-3 ovarian): > 100000 nM
GI50 (EKVX NSCLC): 488 nM
TGI (EKVX NSCLC): > 100000 nM
GI50 (UACC-62 melanoma): 352 nM
TGI (UACC-62 melanoma): > 100000 nM
GI50 (MOLT-4 leukemia): 519 nM
TGI (MOLT-4 leukemia): > 100000 nM
GI50 (COLO 205 colon): 373 nM
TGI (COLO 205 colon): 2950 nM
GI50 (SN12C renal): 430 nM
TGI (SN12C renal): > 100000 nM
GI50 (OVCAR-5 ovarian): 421 nM
TGI (OVCAR-5 ovarian): > 100000 nM
GI50 (HCC-2998 colon): 1140 nM
TGI (HCC-2998 colon): > 100000 nM
GI50 (UACC-257 melanoma): 43400 nM
TGI (UACC-257 melanoma): > 100000 nM
GI50 (KM12 colon): 701 nM
TGI (KM12 colon): > 100000 nM
GI50 (SF-539 CNS): 208 nM
TGI (SF-539 CNS): 648 nM
GI50 (ACHN renal): 824 nM
TGI (ACHN renal): > 100000 nM
GI50 (MALME-3M melanoma): 384 nM
TGI (MALME-3M melanoma): > 100000 nM
GI50 (CAKI-1 renal): 149 nM
TGI (CAKI-1 renal): > 100000 nM
GI50 (MDA-MB-231 breast): 364 nM
TGI (MDA-MB-231 breast): > 100000 nM
GI50 (A498 renal): > 100000 nM
TGI (A498 renal): > 100000 nM
GI50 (786-0 renal): 661 nM
TGI (786-0 renal): > 100000 nM

From PubChem BioAssay (NCI)
